# Experiments:
# [1] = target: T1, Adenosine 5'-monophosphoramidase HINT1 (Mus musculus, UniProt P70349); test: Binding affinity to mouse HINT1 by fluorescence quenching assay
# T1 sequence (P70349 whole entry): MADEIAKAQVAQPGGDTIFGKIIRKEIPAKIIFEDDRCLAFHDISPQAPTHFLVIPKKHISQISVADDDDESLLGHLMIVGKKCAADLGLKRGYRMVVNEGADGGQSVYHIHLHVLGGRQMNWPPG
# [2] = target: T1, Adenosine 5'-monophosphoramidase HINT1; test: Binding affinity to mouse HINT1 by HSQC spectra assay
# [3] = target: T1, Adenosine 5'-monophosphoramidase HINT1; test: Binding affinity to mouse HINT1 by NMR analysis
Kd [3] [µM],SMILES,Kd [1] [µM],Kd [2] [µM]
,NC(=O)c1ncn([C@@H]2O[C@H](COP(=O)(O)O)[C@@H](O)[C@H]2O)c1N,1100,1200
60,Nc1nc2c(ncn2[C@@H]2O[C@H](COP(=O)(O)O)[C@H](O)[C@@H]2O)c(=O)[nH]1 [E626],67,

# — ChEMBL document CHEMBL1240516, “Studies on ligand binding to histidine triad nucleotide binding protein 1” (Bioorg Med Chem, 2010)
